We go through 33 molecules from the Kinase Knowledgebase extract (Sharma et al. 2016).

Each structure is given as a SMILES string.

Experiment [1] deals with PIK3CA (human) (UniProt P42336). Nature of the experiment: Assessment of PIK3CA Kinase Activity.
Experiment [2] deals with PIK3CG (human) (UniProt P48736). Nature of the experiment: Assessment of PIK3CG Kinase Activity.
PIK3CG (human), sequence (P48736 whole entry, looked up): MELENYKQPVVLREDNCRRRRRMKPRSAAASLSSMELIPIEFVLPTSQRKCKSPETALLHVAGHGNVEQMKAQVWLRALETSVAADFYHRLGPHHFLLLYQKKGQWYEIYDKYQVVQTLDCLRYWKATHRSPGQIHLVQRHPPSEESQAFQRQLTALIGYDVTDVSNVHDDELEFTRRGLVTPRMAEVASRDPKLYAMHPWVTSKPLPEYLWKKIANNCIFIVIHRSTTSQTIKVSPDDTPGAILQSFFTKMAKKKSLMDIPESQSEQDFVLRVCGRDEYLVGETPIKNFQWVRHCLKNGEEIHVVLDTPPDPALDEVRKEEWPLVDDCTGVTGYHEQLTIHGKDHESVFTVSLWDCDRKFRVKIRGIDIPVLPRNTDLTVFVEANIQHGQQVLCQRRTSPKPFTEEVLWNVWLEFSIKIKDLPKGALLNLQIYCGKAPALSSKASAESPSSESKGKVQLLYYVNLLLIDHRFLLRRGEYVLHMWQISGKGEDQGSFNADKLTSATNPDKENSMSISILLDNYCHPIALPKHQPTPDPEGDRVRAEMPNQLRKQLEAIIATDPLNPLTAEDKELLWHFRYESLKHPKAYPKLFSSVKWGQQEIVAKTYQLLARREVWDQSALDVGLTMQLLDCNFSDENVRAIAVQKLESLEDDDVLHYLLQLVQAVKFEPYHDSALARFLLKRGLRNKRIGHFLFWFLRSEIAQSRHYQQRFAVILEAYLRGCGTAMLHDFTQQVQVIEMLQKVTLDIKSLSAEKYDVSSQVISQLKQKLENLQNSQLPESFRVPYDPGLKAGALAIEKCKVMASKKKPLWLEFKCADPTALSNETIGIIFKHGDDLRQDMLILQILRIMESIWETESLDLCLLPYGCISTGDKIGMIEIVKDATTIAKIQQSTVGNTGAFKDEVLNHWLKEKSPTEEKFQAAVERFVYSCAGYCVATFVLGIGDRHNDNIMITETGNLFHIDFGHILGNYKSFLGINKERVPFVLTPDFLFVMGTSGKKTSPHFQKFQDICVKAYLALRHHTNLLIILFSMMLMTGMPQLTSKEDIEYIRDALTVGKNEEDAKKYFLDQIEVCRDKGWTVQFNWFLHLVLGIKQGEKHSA

PIK3CA (human), sequence (P42336 whole entry, looked up): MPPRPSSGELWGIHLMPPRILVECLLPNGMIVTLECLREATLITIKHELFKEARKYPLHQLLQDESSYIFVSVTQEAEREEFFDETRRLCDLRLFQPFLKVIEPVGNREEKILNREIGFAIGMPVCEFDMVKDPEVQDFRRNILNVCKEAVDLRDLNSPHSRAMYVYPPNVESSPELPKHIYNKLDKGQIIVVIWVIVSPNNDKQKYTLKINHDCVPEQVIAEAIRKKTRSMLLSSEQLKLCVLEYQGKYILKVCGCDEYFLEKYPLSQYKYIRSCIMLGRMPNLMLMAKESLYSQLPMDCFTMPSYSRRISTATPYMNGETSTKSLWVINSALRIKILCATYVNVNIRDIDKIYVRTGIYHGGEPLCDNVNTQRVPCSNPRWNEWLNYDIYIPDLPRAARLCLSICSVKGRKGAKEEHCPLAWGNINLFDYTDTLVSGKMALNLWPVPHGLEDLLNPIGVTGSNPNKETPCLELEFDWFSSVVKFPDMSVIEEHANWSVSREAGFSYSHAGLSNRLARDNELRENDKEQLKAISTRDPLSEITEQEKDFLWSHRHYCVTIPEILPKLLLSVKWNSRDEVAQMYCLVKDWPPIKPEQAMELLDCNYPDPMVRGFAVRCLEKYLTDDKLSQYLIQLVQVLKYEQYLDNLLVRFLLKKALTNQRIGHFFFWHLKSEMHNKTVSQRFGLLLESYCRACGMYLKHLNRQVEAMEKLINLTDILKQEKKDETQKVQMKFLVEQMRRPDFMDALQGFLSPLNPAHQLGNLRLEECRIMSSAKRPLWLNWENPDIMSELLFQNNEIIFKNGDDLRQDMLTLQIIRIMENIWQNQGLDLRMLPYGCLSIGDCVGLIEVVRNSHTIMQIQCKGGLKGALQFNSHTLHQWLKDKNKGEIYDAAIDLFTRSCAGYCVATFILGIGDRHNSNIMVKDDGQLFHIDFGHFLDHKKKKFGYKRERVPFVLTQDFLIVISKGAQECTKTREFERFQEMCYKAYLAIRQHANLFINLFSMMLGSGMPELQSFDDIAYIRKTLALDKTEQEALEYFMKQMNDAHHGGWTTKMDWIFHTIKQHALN

Take `CCN1CCc2c(nc(-c3ccc(NC(=O)Nc4ccc(CN5CCN(C)CC5)cc4)cc3)nc2N2C3CCC2COC3)C1`: in experiment [1], the IC50 was 1280 nM.
Molecule `CC(C)N1CCc2c(nc(-c3ccc(NC(=O)Nc4ccncc4)cc3)nc2N2CC3CCC(C2)O3)C1` showed an IC50 in experiment [1] of 2030 nM.
As to `CS(=O)(=O)N1Cc2nc(-c3ccc(NC(=O)Nc4cccnc4)cc3)nc(N3CC4CCC(C3)O4)c2C1`, the IC50 in experiment [1] was 334 nM; in experiment [2], more than 10000 nM.
For the molecule `CNC(=O)Nc1ccc(-c2nc3c(c(N4CCOCC4)n2)CN(S(C)(=O)=O)C3)cc1`, the IC50 in experiment [1] came out at 1 nM; in experiment [2] it was 23 nM.
Consider `CCN1CCc2c(nc(-c3ccc(NC(=O)Nc4ccc(N5CCC(N(C)C)CC5)cc4)cc3)nc2N2C3CCC2COC3)C1`, for which the IC50 in experiment [1] worked out at 1070 nM.
With `O=C(Nc1ccncc1)Nc1ccc(-c2nc3c(c(N4C5CCC4COC5)n2)CC[N+](CCF)(CCF)C3)cc1`, the IC50 in experiment [1] came out at 1870 nM.
On to `CS(=O)(=O)N1Cc2nc(-c3ccc(NC(=O)Nc4cccnc4)cc3)nc(N3CCOCC3)c2C1`, for which the IC50 in experiment [1] came to 45 nM; in experiment [2] it was 782 nM.
In turn, `CNC(=O)Nc1ccc(-c2nc3c(c(N4CC5CCC(C4)O5)n2)CCN(C(=O)COC)C3)cc1` gave an IC50 in experiment [2] of 830 nM.
`CCN1CCc2c(nc(-c3ccc(NC(=O)Nc4ccc(CN5CCCC5)cc4)cc3)nc2N2C3CCC2COC3)C1` returned an IC50 in experiment [1] of 737 nM.
On the same count and under the same terms, then `CN1CCN(c2ccc(NC(=O)Nc3ccc(-c4nc5c(c(N6C7CCC6COC7)n4)CCN(CC(F)(F)F)C5)cc3)cc2)CC1`, with 1340 nM; and `CCN1CCc2c(nc(-c3ccc(NC(=O)Nc4ccc(C(=O)N(C)C)cc4)cc3)nc2N2C3CCC2COC3)C1`, with 554 nM.
As to `CNC(=O)Nc1ccc(-c2nc3c(c(N4C5CCC4COC5)n2)CN(S(C)(=O)=O)C3)cc1`, the values for the IC50 in experiment [1] and in experiment [2] were 4 nM and 70 nM, respectively.
`CNC(=O)Nc1ccc(-c2nc3c(c(N4CC5CCC(C4)O5)n2)CCN(C(=O)NC(C)(C)C)C3)cc1` yielded an IC50 in experiment [2] of 375 nM.
Consider `CCN1CCc2c(nc(-c3ccc(NC(=O)Nc4ccc(OCCN(C)C)cc4)cc3)nc2N2C3CCC2COC3)C1`, for which the IC50 in experiment [1] is 1220 nM.
Regarding `CN(C)C1CCN(C(=O)c2ccc(NC(=O)Nc3ccc(-c4nc5c(c(N6CCOCC6)n4)CNC5)cc3)cc2)CC1`, the half-inhibitory concentration (IC50) in experiment [1] turned out to be 9 nM; in experiment [2], 74 nM.
In the case of `CCN1CCc2c(nc(-c3ccc(NC(=O)Nc4ccc(C(=O)O)cc4)cc3)nc2N2C3CCC2COC3)C1`, in experiment [1], the IC50 was determined as 4130 nM.
The same measure, in the same setting: then `CCN1CCc2c(nc(-c3ccc(NC(=O)Nc4ccc(C(F)(F)F)cc4)cc3)nc2N2C3CCC2COC3)C1`, with 3010 nM.
With `CCCCC(CC)C(=O)N1CCc2c(nc(-c3ccc(NC(=O)NC)cc3)nc2N2CC3CCC(C2)O3)C1` (stereo not drawn), in experiment [2], the IC50 is 270 nM.
For `CN(C)CC(=O)N1CCc2c(nc(-c3ccc(NC(=O)Nc4ccncc4)cc3)nc2N2C3CCC2COC3)C1`, the IC50 in experiment [1] turned out to be 807 nM.
As for `CNC(=O)Nc1ccc(-c2nc3c(c(N4C5CCC4COC5)n2)CNC3)cc1`, the concentration for half-maximal inhibition (IC50) in experiment [1] was 288 nM; in experiment [2] it was 7290 nM.
On to `CNC(=O)Nc1ccc(-c2nc3c(c(N4C5CCC4COC5)n2)CCNC3)cc1`, for which the IC50 in experiment [1] is 3760 nM; in experiment [2] it was more than 10000 nM.
In experiment [2], `CNC(=O)Nc1ccc(-c2nc3c(c(N4CC5CCC(C4)O5)n2)CCN(S(=O)(=O)N(C)C)C3)cc1` yielded an IC50 of 190 nM.
The same measure, in the same setting: the result for `CCCCOC(=O)N1CCc2c(nc(-c3ccc(NC(=O)NC)cc3)nc2N2CC3CCC(C2)O3)C1` reads 375 nM.
Same read-out and setting: the result for `CCCCCCC(=O)N1CCc2c(nc(-c3ccc(NC(=O)NC)cc3)nc2N2CC3CCC(C2)O3)C1` reads 960 nM.
`CNC(=O)Nc1ccc(-c2nc3c(c(N4CC5CCC(C4)O5)n2)CCNC3)cc1`: the IC50 was 2720 nM in experiment [1] and more than 10000 nM in experiment [2].
In the case of `CCCCCCNC(=O)N1CCc2c(nc(-c3ccc(NC(=O)NC)cc3)nc2N2CC3CCC(C2)O3)C1`, the IC50 in experiment [2] came out at 195 nM.
In turn, `O=C(Nc1ccncc1)Nc1ccc(-c2nc3c(c(N4CC5CCC(C4)O5)n2)CCN(CCF)C3)cc1` registered an IC50 in experiment [1] of 330 nM.
Turning to `CCN1CCc2c(nc(-c3ccc(NC(=O)NCCF)cc3)nc2N2C3CCC2COC3)C1`, the IC50 in experiment [1] came out at 5780 nM.
Turning to `CN(C)C1CCN(C(=O)c2ccc(NC(=O)Nc3ccc(-c4nc5c(c(N6C7CCC6COC7)n4)CCN(S(C)(=O)=O)C5)cc3)cc2)CC1`, the IC50 in experiment [1] was 1330 nM; in experiment [2], more than 10000 nM.
Regarding `CCN1CCc2c(nc(-c3ccc(NC(=O)Nc4ccc(C(=O)N5CCCC5)cc4)cc3)nc2N2C3CCC2COC3)C1`, the IC50 in experiment [1] stood at 220 nM.
The molecule `CNC(=O)Nc1ccc(-c2nc3c(c(N4CC5CCC(C4)O5)n2)CCN(C(=O)C(C)(C)C)C3)cc1` displayed an IC50 in experiment [2] of 300 nM.
On the same count and under the same terms, then `CNC(=O)Nc1ccc(-c2nc3c(c(N4CC5CCC(C4)O5)n2)CCN(C(=O)c2c(F)cccc2F)C3)cc1`, with 300 nM.
On to `CNC(=O)Nc1ccc(-c2nc3c(c(N4CC5CCC(C4)O5)n2)CNC3)cc1`, for which the IC50 in experiment [1] amounted to 39 nM; in experiment [2], 3390 nM.
